# From PMC12474298 (Viruses, 2025)
# What was measured:
# IMPα1 (human IMPα1ΔIBB) = IMPα1 (human IMPα1ΔIBB) (Homo sapiens, UniProt P52292); assay: Fluorescence polarization assay, FITC-NLS peptide vs importin α1ΔIBB
# IMPα3 (human IMPα3ΔIBB) = target: T1, IMPα3 (human IMPα3ΔIBB) (Homo sapiens, UniProt O00629); assay: Fluorescence polarization assay, FITC-NLS peptide vs importin α3ΔIBB
# T1 sequence (O00629 64-521 limits assumed): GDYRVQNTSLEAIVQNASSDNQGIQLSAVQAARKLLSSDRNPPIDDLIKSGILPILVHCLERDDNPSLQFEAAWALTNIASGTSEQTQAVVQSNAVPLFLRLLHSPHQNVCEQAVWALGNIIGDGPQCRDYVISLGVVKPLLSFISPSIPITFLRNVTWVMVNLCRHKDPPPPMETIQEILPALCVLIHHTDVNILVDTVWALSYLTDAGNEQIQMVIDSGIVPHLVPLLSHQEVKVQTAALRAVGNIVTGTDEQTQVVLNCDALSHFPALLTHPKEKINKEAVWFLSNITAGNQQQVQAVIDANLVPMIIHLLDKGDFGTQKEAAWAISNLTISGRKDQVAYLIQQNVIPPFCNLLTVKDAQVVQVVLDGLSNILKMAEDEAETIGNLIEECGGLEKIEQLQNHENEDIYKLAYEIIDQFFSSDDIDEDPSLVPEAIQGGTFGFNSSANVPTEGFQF
structure (smiles),measurement,setting,value
CC[C@H](C)[C@H](NC(=O)[C@H](CCCNC(=N)N)NC(=O)[C@H](CCCNC(=N)N)NC(=O)[C@H](CCCNC(=N)N)NC(=O)[C@H](CCCCN)NC(=O)[C@H](CCCCN)NC(=O)[C@@H](NC(=O)[C@H](CCC(=O)O)NC(=O)CCCCCNC(=S)Nc1ccc2c(c1)C(=O)OC21c2ccc(O)cc2Oc2cc(O)ccc21)[C@@H](C)O)C(=O)N[C@@H](CC(C)C)C(=O)N[C@@H](CCC(=O)O)C(N)=O [HaHV1 UL36h NLS],Kd,IMPα1 (human IMPα1ΔIBB),226 nM
same,Kd,IMPα3 (human IMPα3ΔIBB),193 nM
